Measurements from patent EP4803523A1, “FUSED HETEROARYL COMPOUND, PREPARATION METHOD THEREFOR, AND USE THEREOF IN MEDICINE” (Jiangsu Hengrui Pharmaceuticals Co., Ltd., priority 2023, dated 2025).

What was measured:
in vivo = details: rat, in vivo, po, 20 mg/kg
Description: Using SD rats as the test animals, the plasma concentrations of the example compounds at different time points were determined by LC-MS/MS following oral gavage (i.g.) administration. The pharmacokinetic behaviours of the compounds of the present disclosure in rats were investigated, and their pharmacokinetic profiles were evaluated.
Blood samples (0.2 mL) were collected from the orbit before administration and at 0.25, 0.5, 1.0, 2.0, 4.0, 6.0, 8.0, 11.0, and 24.0 hours after administration. The samples were placed in EDTA-K2 anticoagulant tubes, centrifuged at 10,000 rpm for 2 minute (4°C), and the plasma was separated within 1 hour and stored at -20°C or -80°C until analysis. The entire process from blood collection to centrifugation was performed in ice bath conditions.
The mixture was vortexed and then centrifuged at 4000 rpm for 15 minutes; the supernatant was taken for LC-MS/MS analysis. […] The mixture was vortexed and then centrifuged at 3700 rpm for 10 minutes; the supernatant was taken for LC-MS/MS analysis.
The mixture was vortexed and then centrifuged at 4000 rpm for 15 minutes; the supernatant was taken for LC-MS/MS analysis. […] The mixture was vortexed and then centrifuged at 4000 rpm for 15 minutes; the supernatant was taken for LC-MS/MS analysis.

GP2d = test: 3D cell proliferation inhibition assay (CellTiter-Glo 3D); format: cell-based; details: GP2d cells, KRAS G12D, 3D culture, 5 days with compound
Description: (§1) This experiment uses the cells listed in the table below to evaluate the inhibitory effects of the compounds on the proliferation of KRAS mutant or KRAS amplified cells.
(§2) On the first day of the experiment, cells that were growing well and had reached 70%-80% confluence were digested, resuspended in culture medium, and the cell density was adjusted to the desired level. In a U-shaped low-attachment 96-well plate (Corning, 7007), 90 µL of cell suspension was added per well, with the cell density as shown in the table above. The cell plate was centrifuged at 2500 rpm for 5 minutes and then placed in an incubator for 24 hours of culture. On the second day, the 20 mM test compound dissolved in DMSO was diluted with DMSO to the first concentration of 2 or 0.2 mM, and then serially diluted in a 5-fold gradient to obtain 9 concentration points, with the control well containing DMSO. The serially diluted compound was then further diluted 20-fold with culture medium. 10 µL of the test compound diluted in culture medium was added to each well of the cell plate. The final concentrations of the compound were 9 points in a 5-fold serial dilution starting from 10 or 1 µM. Cell wells containing 0.5% DMSO were set as vehicle control wells, and wells containing only culture medium and 0.5% DMSO were set as blank control wells. The cell plate was centrifuged at 2000 rpm for 3 minutes and then placed in an incubator for 5 days of culture. On the seventh day, the 96-well cell culture plate was taken out, and 50 µL of the luminescent cell viability detection reagent, CellTiter-Glo® 3D Cell Viability Assay (Promega, G9683), was added to each well. After shaking at room temperature for 25 minutes, the mixture was pipetted up and down to mix, and 100 µL was transferred from each well to a white, opaque-bottom OptiPlate™-96 well plate (PerkinElmer, 6005290). The luminescence signal value was read using a multimode microplate reader (PerkinElmer, EnVision2105).
(§3) The inhibition rate was calculated using the following formula: Inhibition rate = (Luminescence value vehicle control well - Luminescence value test compound)/(Luminescence value vehicle control well - Luminescence value blank control well) × 100%. The IC50 values of the compound inhibitory activity were calculated using Graphpad Prism software. Table 1. Data of inhibitory activity on 3D cell proliferation (unit: nM)

AGS = test: as above; format: cell-based; details: Homo sapiens, 120 h; AGS cells, KRAS G12D, 3D culture, 5 days with compound
Description: as §1, §2, §3

AsPC-1 = test: as above; format: cell-based; details: Homo sapiens, ASPC1, 120 h; AsPC-1 cells, KRAS G12D, 3D culture, 5 days with compound
Description: as §1, §2, §3

SMILES	IC50 (AGS) [nM]	IC50 (GP2d; GP2d, 120 h) [nM]	also measured
N#Cc1c(N)sc2c(F)ccc(-c3c4c(c5cnc(OC[C@@]67CCCN6C[C@H](F)C7)nc5c3Cl)COC4)c12 (single isomer, unassigned) [60A (reference), reference compound]			AUC(0-t) (in vivo): 1820 ng·h/mL; CL/F (in vivo): 178 mL/min/kg; Cmax (in vivo): 143 ng/mL; Vd/F (in vivo): 54.5 L/kg; half-life (in vivo): 3.53 h
N#Cc1c(N)sc2c(F)ccc(-c3c4c(c5c(N6C7CCC6CNC7)nc(OCC6(CN7CCC(=CF)CC7)CC6)nc5c3F)COC4)c12 (single isomer, unassigned) [Example 9A]	4.22		IC50 (GP2d): 0.16 nM
N#Cc1c(N)sc2c(F)ccc(-c3c4c(c5c(N6C7CCC6CNC7)nc(OCC6(CN7CCC(=CF)CC7)CC6)nc5c3F)COC4)c12 (single isomer, unassigned) [Example 9B]			IC50 (GP2d): 2.6 nM
C[C@@H](O)CN1CC2CCC(C1)N2c1nc(OCC2(C#N)CC2)nc2c(F)c(-c3ncc(F)c4sc(N)c(C#N)c34)c3c(c12)COC3 [58 (reference), reference compound]	2000	> 1000	IC50 (AsPC-1): 3330 nM
N#Cc1c(N)sc2c(F)ccc(-c3c4c(c5c(N6C7CCC6CNC7)nc(OCC6(CN7CCC(=C(F)F)CC7)CC6)nc5c3F)COC4)c12 [Example 11, 4-(1-(3,8-diazabicyclo[3.2.1]oct-8-yl)-3-((1-((4-(difluoromethylene)piperidin-1-yl)methyl)cyclopropyl)methoxy)-5-fluoro-7,9-dihydrofuro[3,4-f]quinazolin-6-yl)-2-amino-7-fluorobenzo[b]thiophene-3-carbonitrile]	8.64	0.86	
N#Cc1c(N)sc2c(F)ccc(-c3c4c(c5c(N6C7CCC6CNC7)nc(OCC67CCCN6CC(=CF)C7)nc5c3F)COC4)c12 (centres unmarked) [Example 13, 4-(1-(3,8-Diazabicyclo[3.2.1]oct-8-yl)-5-fluoro-3-((2-(fluoromethylene)tetrahydro-1H-pyrrolizin-7a(5H)-yl)methoxy)-7,9-dihydrofuro[3,4-f]quinazolin-6-yl)-2-amino-7-fluorobenzo[b]thiophene-3-carbonitrile]	2.19	0.39	
N#Cc1c(N)sc2c(F)ccc(-c3c4c(c5c(N6C7CCC6CNC7)nc(OCC67CCCN6CC(=C(F)F)C7)nc5c3F)COC4)c12 (centres unmarked) [Example 17, 4-(1-(3,8-Diazabicyclo[3.2.1]oct-8-yl)-3-((2-(difluoromethylene)tetrahydro-1H-pyrrolizin-7a(5H)-yl)methoxy)-5-fluoro-7,9-dihydrofuro[3,4-f]quinazolin-6-yl)-2-amino-7-fluorobenzo[b]thiophene-3-carbonitrile]	2.86	0.57	
C=C1CN2CC(=C)CC2(COc2nc(N3C4CCC3CNC4)c3c4c(c(-c5ccc(F)c6sc(N)c(C#N)c56)c(F)c3n2)COC4)C1 [Example 18, 4-(1-(3,8-Diazabicyclo[3.2.1]oct-8-yl)-3-((2,6-dimethylenetetrahydro-1H-pyrrolizin-7a(5H)-yl)methoxy)-5-fluoro-7,9-dihydrofuro[3,4-f]quinazolin-6-yl)-2-amino-7-fluorobenzo[b]thiophene-3-carbonitrile]	4.89	0.53	
N#Cc1c(N)sc2c(F)cnc(-c3c4c(c5c(N6C7CCC6CN(O)C7)nc(OCC6(CN7CCC(=C(F)F)CC7)CC6)nc5c3F)COC4)c12 [Example 21, 2-Amino-4-(3-((1-((4-(difluoromethylene)piperidin-1-yl)methyl)cyclopropyl)methoxy)-5-fluoro-1-(3-hydroxyl-3,8-diazabicyclo[3.2.1]oct-8-yl)-7,9-dihydrofuro[3,4-f]quinazolin-6-yl)-7-fluorothieno[3,2-c]pyridine-3-carbonitrile]		2.12	
